The record followed here is PubChem BioAssay (NCI).

The structures appear in SMILES notation.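 Cultured in 96-well plates, cells were exposed to test compound for 48 hours across five concentrations. TGI: concentration producing complete growth inhibition.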 Bounds are passed on as bounds.

Holding throughout (experiment): NCI-60 cell line screen, 48 h
Test [1] has as its system NCI/ADR-RES ovarian.
For test [2], the system named is M14 melanoma.
Test [3] concerns SW-620 colon.
Test [4] deals with CCRF-CEM leukemia.
Test [5] deals with K-562 leukemia.
For test [6], the system named is HT29 colon.
In test [7] the test system is UACC-257 melanoma.
For test [8], the system named is OVCAR-5 ovarian.
Test [9] has as its system ACHN renal.
The test system of test [10] is NCI-H460 lung.
Test [11] relates to T-47D breast.
The test system of test [12] is TK-10 renal.
For test [13], the system named is RPMI-8226 leukemia.
For test [14], the system named is 786-0 renal.
Test [15] has as its system OVCAR-8 ovarian.
Test [16] relates to SK-MEL-28 melanoma.
The test system of test [17] is SN12C renal.
Test [18] has as its system IGROV1 ovarian.
Test [19] relates to A549 NSCLC.
The subject of test [20] is MOLT-4 leukemia.

For the compound `O=C(NNc1ccnc2cc(Cl)ccc12)/C(=C\c1ccccc1Cl)NC(=O)c1ccccc1`, the TGI in test [1] was 73.7 µM; in test [2], > 100 µM; in test [3], > 100 µM; in [4], > 100 µM; in test [5], > 100 µM; in [6] it was > 100 µM. The TGI in test [7], in test [8], in test [9], in test [10], in test [11] and in test [12] was > 100 µM each time. The TGI in test [13] is > 100 µM; in test [14] it was > 100 µM; in [15], 43.5 µM; in test [16], > 100 µM; in test [17], > 100 µM; in test [18] it was > 100 µM. In test [19], the TGI is > 100 µM.

For the compound `Cc1ccc2nc(-c3ccc(-n4c(C)nc(=O)c(-c5ccc(F)cc5)c4C)cc3)sc2c1`, the TGI in test [1] stood at 35 µM; in test [2] it was 26.4 µM; in [3], 57.2 µM; in test [4] it was 32.7 µM; in [5], 45.4 µM; in [6], 30.1 µM. Besides, the TGI worked out at 30.1 µM in [7]; 35.9 µM in test [8]; 28.4 µM in test [9]; 17.2 µM in test [11]; 30.8 µM in test [12]; 39.6 µM in [13]. Also, the TGI stood at 29.9 µM in [14]; 42.9 µM in test [15]; 50.7 µM in test [16]; 33.8 µM in test [17]; 31.4 µM in test [18]; 35.6 µM in test [19]. In test [20], this compound gave a TGI of 27.7 µM.

Turning to `COc1ccc(N=C2C(=Nc3ccc(OC)cc3)N(S(=O)(=O)c3ccccc3)C(=S)N2c2ccccc2)cc1`, the TGI in [1], in test [2], in test [3], in test [5], in test [6] and in [7] was > 100 µM throughout. The TGI in test [8], in [9], in [10], in test [11], in [12] and in [13] was > 100 µM throughout. Also, the TGI in test [14], in [15], in [16], in test [17], in [18] and in test [19] was > 100 µM throughout. For the same compound, in [20], the TGI was > 100 µM.

With `C=CCCCC1SC2=C(CC)CCCN2C1=O` (centres undefined), the TGI is > 100 µM in [1]; > 100 µM in test [2]; > 100 µM in [3]; > 100 µM in test [5]; > 100 µM in [6]; 63.1 µM in test [7]. Besides, the TGI in [8], in [9], in test [11], in test [12], in [13] and in test [14] was > 100 µM each time. In addition, the TGI in test [15], in test [16], in [17], in [18], in [19] and in test [20] was > 100 µM in each case.

In the case of `O=C(O)[C@@H]1CCC(=O)N1C(c1ccc2c(c1)OCO2)c1ccc2c(c1)OCO2`, the TGI in test [1], in test [2], in test [3], in test [5], in test [6] and in [7] was > 100 µM throughout. For the same compound, the TGI in [8], in [9], in test [10], in test [11], in [12] and in [13] was > 100 µM each time. The TGI in test [14], in [15], in test [16], in test [17], in test [18] and in [19] was > 100 µM throughout. For the same compound, the TGI in [20] was > 100 µM.

Turning to `CCOC(=O)CC1(O)CCCCC1(Sc1ccc(C)cc1)Sc1ccc(C)cc1` (centres undefined), the TGI in [1], in [2], in test [3], in test [4], in [5] and in test [6] was > 100 µM in each case. For the same compound, the TGI is > 100 µM in test [7]; > 100 µM in [8]; > 100 µM in test [9]; > 100 µM in [10]; 85.3 µM in test [11]; > 100 µM in test [12]. The TGI in test [14], in test [15], in test [16], in test [17], in [19] and in test [20] was > 100 µM throughout.

For `CN(Cc1cnc2nc(N)nc(N)c2n1)c1ccc(C(=O)NCS(=O)(=O)O)cc1`, the TGI in [1], in test [2], in test [3], in test [5], in test [6] and in test [7] was > 100 µM in each case. The TGI in test [8], in test [9], in [10], in [11], in test [12] and in test [13] was > 100 µM in each case. The TGI in [14], in [15], in test [16], in [17], in test [18] and in [19] was > 100 µM in each case. Moreover, the TGI in [20] was > 100 µM.

As to `O=C(O)c1ccc(-c2nc3ccc(Cl)cc3[nH]2)cc1`, the TGI in test [1], in [2], in [3], in [4], in [5] and in [6] was > 100 µM in each case. Further, the TGI in test [11], in [13], in [14], in test [15], in test [17] and in test [18] was > 100 µM in each case. The TGI in test [19] and in test [20] was > 100 µM throughout.

With `O1C2C1C1OC1C1OC1C1OC21` (centres undefined), the TGI in [1], in [2], in [4], in test [5], in test [6] and in test [7] was > 100 µM each time. The TGI in [8], in test [9], in [11], in [12], in [14] and in [15] was > 100 µM in each case. The TGI in test [16], in test [17], in [19] and in test [20] was > 100 µM in each case.

`COc1cc(/C=C/C(=O)OCCc2ccccc2)ccc1O`: the TGI was determined as 60.6 µM in [1]; 29 µM in [2]; 41.2 µM in test [3]; 85.4 µM in [5]; 44.3 µM in test [6]; 32.4 µM in test [7]. Further, the TGI in test [8] came out at 32.8 µM; in [9], 33.9 µM; in test [10], 37.1 µM; in [11], 33.2 µM; in test [12] it was 28.3 µM; in test [13], 65.9 µM. Besides, the TGI in test [14] is 30.4 µM; in [15], 79.3 µM; in [16] it was 26.9 µM; in test [17], 36.7 µM; in test [18] it was 28 µM; in test [19], 38.9 µM. Moreover, in test [20], the TGI turned out to be 37.9 µM.

As for `C=C1CCCCCCCCCCC12SCCC2CCCCSC` (centres undefined), the TGI worked out at 46.2 µM in [1]; 50.1 µM in test [2]; 68.9 µM in [3]; 44 µM in [5]; 61.4 µM in [6]; 52.8 µM in test [7]. The TGI in test [8] is 40 µM; in test [9] it was 38.9 µM; in [10] it was > 100 µM; in test [11], 43.8 µM; in [13] it was 46 µM; in test [14], 87.4 µM. Further, the TGI in [15] was 56.4 µM; in test [16], 57.8 µM; in [17], 53.9 µM; in test [18] it was 49.9 µM; in test [19], > 100 µM; in [20] it was 40.1 µM.

In the case of `O=C(CC(C(=O)c1ccco1)c1cccs1)c1cccs1` (centres undefined), the TGI in [1], in test [2], in test [3], in test [6], in [7] and in test [8] was > 100 µM each time. For the same compound, the TGI in test [9], in test [10], in test [11], in test [12], in [13] and in [14] was > 100 µM throughout. For the same compound, the TGI in test [15], in test [16], in test [17], in [18] and in test [19] was > 100 µM in each case.

Take `COc1ccc(OC)c(C23CCCC(C2)N(C)CC3)c1` (centres undefined): the TGI was > 100 µM in test [1]; 34.1 µM in [2]; 43 µM in test [5]; 49.1 µM in test [6]; > 100 µM in test [7]; > 100 µM in [8]. In addition, the TGI in [9] was 78.1 µM; in [10], 52 µM; in [11] it was > 100 µM; in [12], > 100 µM; in test [13] it was 42.2 µM; in test [14], 85.3 µM. Also, the TGI in [17], in [19] and in test [20] was > 100 µM each time.

Take `Cc1cccc2c(N)c3cccc(C(=O)NCC[N+](C)(C)Cc4sccc4[N+](=O)[O-])c3nc12`: the TGI in test [1] was > 100 µM; in [2] it was 32.8 µM; in [3] it was > 100 µM; in test [4], > 100 µM; in test [5], > 100 µM; in test [6], 18.6 µM. For the same compound, the TGI in [7] is > 100 µM; in test [8], 33.1 µM; in test [9], 18.1 µM; in test [11], > 100 µM; in [12] it was > 100 µM; in test [14], > 100 µM. Besides, the TGI was 35.9 µM in test [15]; > 100 µM in test [16]; > 100 µM in test [17]; > 100 µM in [18]; 16.9 µM in test [19]; > 100 µM in test [20].

As to `COc1cc(C=C2N=C(c3ccccc3)N(n3c(-c4ccccc4)nc4ccccc4c3=O)C2=O)cc(OC)c1OC`, the TGI in [1] is > 100 µM; in test [2] it was 75.7 µM; in test [3], > 100 µM; in test [4], > 100 µM; in test [5], > 100 µM; in [6], 78.1 µM. The TGI in test [7] was 43 µM; in test [8], > 100 µM; in test [9] it was 82.2 µM; in test [10] it was 47.2 µM; in [11] it was 50.2 µM; in test [12], > 100 µM. Moreover, the TGI in test [14] was 45.9 µM; in test [15], 51.4 µM; in [16], 35.5 µM; in test [17] it was 36.2 µM; in test [18], 94.4 µM; in test [19], > 100 µM. The TGI in test [20] was > 100 µM.

Turning to `Cc1n[nH]c(=O)n1/N=C/c1cccs1`, the TGI in test [1], in test [2], in test [3], in test [4], in test [5] and in test [6] was > 100 µM throughout. Also, the TGI in test [7], in test [8], in test [9], in test [10], in [11] and in test [13] was > 100 µM throughout. Besides, the TGI in test [14], in [15], in test [16], in test [17] and in test [19] was > 100 µM in each case.
